Laboratory results as given in US12568972B2, “Pyridazinol compounds and derivatives, preparation methods, herbicidal compositions and applications thereof” (Qingdao Kingagroot Chemical Compound Co., Ltd., priority 2018, dated 2026).

Legend:
Assay in all cases: Post-emergence test, weed control effect
Type in all cases: in vivo
Details in all cases: after 3 weeks
Rorippa indica = system: Rorippa indica
Summary of the method: (§1)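 Greenhouse pots, soil-sown, 0.5-2 cm cover; foliar spray at 2-3 leaf stage (2-3 wk post-sowing); cpd in acetone + Tween-80, water-diluted, + 80% veg. oil methyl ester synergist 1500 g/ha; 3 wk culture; fresh-wt inhibition graded 0-10.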

Chenopodiaceae = system: Chenopodiaceae
Summary of the method: as §1

Amaranthus retroflexus = system: Amaranthus retroflexus
Summary of the method: as §1

Veronica polita = system: Veronica polita
Summary of the method: as §1

Oc1cc(C(F)(F)F)nnc1-c1ccc2cccnc2c1 [Compound 723]
10: weed control effect (activity level), Rorippa indica (Rorippa indica; Dose 3000 g/ha) | weed control effect (activity level), Chenopodiaceae (Chenopodiaceae; Dose 3000 g/ha) | weed control effect (activity level), Amaranthus retroflexus (Amaranthus retroflexus; Dose 3000 g/ha) | weed control effect (activity level), Veronica polita (Veronica polita; Dose 3000 g/ha)

Oc1cc(C(F)(F)F)nnc1-c1ccc(F)cc1F [Compound 732]
10: weed control effect (activity level), Rorippa indica (Rorippa indica; dose 1000 g/ha) | weed control effect (activity level), Chenopodiaceae (Chenopodiaceae; dose 1000 g/ha) | weed control effect (activity level), Amaranthus retroflexus (Amaranthus retroflexus; dose 1000 g/ha) | weed control effect (activity level), Veronica polita (Veronica polita; dose 1000 g/ha)

Oc1cc(C(F)(F)F)nnc1-c1cccc2cccnc12 [Compound 734]
10: weed control effect (activity level), Rorippa indica (Rorippa indica; dose 1000 g/ha) | weed control effect (activity level), Chenopodiaceae (Chenopodiaceae; dose 1000 g/ha) | weed control effect (activity level), Amaranthus retroflexus (Amaranthus retroflexus; dose 1000 g/ha) | weed control effect (activity level), Veronica polita (Veronica polita; dose 1000 g/ha)

Cc1cccc(C2CC2)c1-c1nnc(C(F)(F)F)cc1O [Compound 735]
10: weed control effect (activity level), Rorippa indica (Rorippa indica; dose 1000 g/ha) | weed control effect (activity level), Chenopodiaceae (Chenopodiaceae; dose 1000 g/ha) | weed control effect (activity level), Amaranthus retroflexus (Amaranthus retroflexus; dose 1000 g/ha) | weed control effect (activity level), Veronica polita (Veronica polita; dose 1000 g/ha)

Oc1cc(C(F)(F)F)nnc1-c1cccc(F)c1 [Compound 736]
10: weed control effect (activity level), Rorippa indica (Rorippa indica; dose 1000 g/ha) | weed control effect (activity level), Chenopodiaceae (Chenopodiaceae; dose 1000 g/ha) | weed control effect (activity level), Amaranthus retroflexus (Amaranthus retroflexus; dose 1000 g/ha) | weed control effect (activity level), Veronica polita (Veronica polita; dose 1000 g/ha)

Oc1cc(C(F)(F)F)nnc1-c1ccccc1C(F)(F)F [Compound 737]
10: weed control effect (activity level), Rorippa indica (Rorippa indica; Dose 3000 g/ha) | weed control effect (activity level), Chenopodiaceae (Chenopodiaceae; Dose 3000 g/ha) | weed control effect (activity level), Amaranthus retroflexus (Amaranthus retroflexus; Dose 3000 g/ha) | weed control effect (activity level), Veronica polita (Veronica polita; Dose 3000 g/ha)

COc1c(Cl)ccc(-c2nnc(C(F)(F)F)cc2O)c1F [Compound 741]
10: weed control effect (activity level), Rorippa indica (Rorippa indica; Dose 3000 g/ha) | weed control effect (activity level), Chenopodiaceae (Chenopodiaceae; Dose 3000 g/ha) | weed control effect (activity level), Amaranthus retroflexus (Amaranthus retroflexus; Dose 3000 g/ha) | weed control effect (activity level), Veronica polita (Veronica polita; Dose 3000 g/ha)

N#Cc1cccc(-c2nnc(C(F)(F)F)cc2O)c1 [Compound 742]
10: weed control effect (activity level), Rorippa indica (Rorippa indica; Dose 3000 g/ha) | weed control effect (activity level), Chenopodiaceae (Chenopodiaceae; Dose 3000 g/ha) | weed control effect (activity level), Amaranthus retroflexus (Amaranthus retroflexus; Dose 3000 g/ha) | weed control effect (activity level), Veronica polita (Veronica polita; Dose 3000 g/ha)

Oc1cc(C(F)(F)F)nnc1-c1cc2ccccc2cn1 [Compound 743]
10: weed control effect (activity level), Rorippa indica (Rorippa indica; Dose 3000 g/ha) | weed control effect (activity level), Chenopodiaceae (Chenopodiaceae; Dose 3000 g/ha) | weed control effect (activity level), Amaranthus retroflexus (Amaranthus retroflexus; Dose 3000 g/ha) | weed control effect (activity level), Veronica polita (Veronica polita; Dose 3000 g/ha)

Oc1cc(C(F)(F)F)nnc1-c1ccc(Cl)c(F)c1 [Compound 745]
10: weed control effect (activity level), Rorippa indica (Rorippa indica; Dose 3000 g/ha) | weed control effect (activity level), Chenopodiaceae (Chenopodiaceae; Dose 3000 g/ha) | weed control effect (activity level), Amaranthus retroflexus (Amaranthus retroflexus; Dose 3000 g/ha) | weed control effect (activity level), Veronica polita (Veronica polita; Dose 3000 g/ha)

Oc1cc(C(F)(F)F)nnc1-c1ccc(C(F)(F)F)cc1 [Compound 746]
10: weed control effect (activity level), Rorippa indica (Rorippa indica; Dose 3000 g/ha) | weed control effect (activity level), Chenopodiaceae (Chenopodiaceae; Dose 3000 g/ha) | weed control effect (activity level), Amaranthus retroflexus (Amaranthus retroflexus; Dose 3000 g/ha) | weed control effect (activity level), Veronica polita (Veronica polita; Dose 3000 g/ha)

Oc1cc(C(F)(F)F)nnc1-c1ccc(Cl)c(Cl)c1Cl [Compound 753]
10: weed control effect (activity level), Rorippa indica (Rorippa indica; Dose 3000 g/ha) | weed control effect (activity level), Chenopodiaceae (Chenopodiaceae; Dose 3000 g/ha) | weed control effect (activity level), Amaranthus retroflexus (Amaranthus retroflexus; Dose 3000 g/ha) | weed control effect (activity level), Veronica polita (Veronica polita; Dose 3000 g/ha)

O=[N+]([O-])c1cc(-c2nnc(C(F)(F)F)cc2O)ccc1Br [Compound 755]
10: weed control effect (activity level), Rorippa indica (Rorippa indica; Dose 3000 g/ha) | weed control effect (activity level), Chenopodiaceae (Chenopodiaceae; Dose 3000 g/ha) | weed control effect (activity level), Amaranthus retroflexus (Amaranthus retroflexus; Dose 3000 g/ha) | weed control effect (activity level), Veronica polita (Veronica polita; Dose 3000 g/ha)

Oc1cc(C(F)(F)F)nnc1-c1cccc(C(F)(F)F)c1F [Compound 761]
10: weed control effect (activity level), Rorippa indica (Rorippa indica; Dose 3000 g/ha) | weed control effect (activity level), Chenopodiaceae (Chenopodiaceae; Dose 3000 g/ha) | weed control effect (activity level), Amaranthus retroflexus (Amaranthus retroflexus; Dose 3000 g/ha) | weed control effect (activity level), Veronica polita (Veronica polita; Dose 3000 g/ha)

Oc1cc(C(F)(F)F)nnc1-c1ccc(C(F)(F)F)nc1 [Compound 762]
10: weed control effect (activity level), Rorippa indica (Rorippa indica; Dose 3000 g/ha) | weed control effect (activity level), Chenopodiaceae (Chenopodiaceae; Dose 3000 g/ha) | weed control effect (activity level), Amaranthus retroflexus (Amaranthus retroflexus; Dose 3000 g/ha) | weed control effect (activity level), Veronica polita (Veronica polita; Dose 3000 g/ha)

Oc1cc(C(F)(F)F)nnc1-c1ccc(Cl)cc1C(F)(F)F [Compound 763]
10: weed control effect (activity level), Rorippa indica (Rorippa indica; Dose 3000 g/ha) | weed control effect (activity level), Chenopodiaceae (Chenopodiaceae; Dose 3000 g/ha) | weed control effect (activity level), Amaranthus retroflexus (Amaranthus retroflexus; Dose 3000 g/ha) | weed control effect (activity level), Veronica polita (Veronica polita; Dose 3000 g/ha)

Oc1cc(C(F)(F)F)nnc1-c1ccc(F)cc1C(F)(F)F [Compound 764]
10: weed control effect (activity level), Rorippa indica (Rorippa indica; Dose 3000 g/ha) | weed control effect (activity level), Chenopodiaceae (Chenopodiaceae; Dose 3000 g/ha) | weed control effect (activity level), Amaranthus retroflexus (Amaranthus retroflexus; Dose 3000 g/ha) | weed control effect (activity level), Veronica polita (Veronica polita; Dose 3000 g/ha)

Oc1cc(C(F)(F)F)nnc1-c1cccc(F)c1F [Compound 766]
10: weed control effect (activity level), Rorippa indica (Rorippa indica; Dose 3000 g/ha) | weed control effect (activity level), Chenopodiaceae (Chenopodiaceae; Dose 3000 g/ha) | weed control effect (activity level), Amaranthus retroflexus (Amaranthus retroflexus; Dose 3000 g/ha) | weed control effect (activity level), Veronica polita (Veronica polita; Dose 3000 g/ha)
